Data taken from patent publication US5637600A, “Phenylpyrrole derivatives and their use as dopamine D3 antagonists” (SmithKline Beecham p.l.c., priority 1994, dated 1997).
Where a name gives a salt, the structure may show the parent alone.

target: T1, human D3 dopamine receptors (Homo sapiens, UniProt P35462); test: [125I] iodosulpride displacement binding to cloned human D3 dopamine receptors expressed in CHO cells; conditions: displacement of 0.1 nM [125I] iodosulpride, CHO cell membranes, 30 min at 37° C.; read-out: IC50 values at the human D3 receptor
T1 construct: expressed in transfected cells; host or cells: CHO cells
Experimental: The inhibition constants (Ki) of test compounds for displacement of [^125 I] iodosulpride binding to human D3 dopamine receptors expressed in CHO cells were determined as follows. […] Cultures were grown as monolayers or in suspension in standard cell culture media. Cells were recovered by scraping (from monolayers) or by centrifugation (from suspension cultures), and were washed two or three times by suspension in phosphate buffered saline followed by collection by centrifugation. Cell pellets were stored frozen at -40° C. Crude cell membranes were prepared by homogenisation followed by high-speed centrifugation, and characterisation of cloned receptors achieved by radioligand binding.
Cell pellets were gently thawed at room temperature, and resuspended in about 20 volumes of ice-cold 50 mM Tris salts (pH 7.4@37° C.), 20 mM EDTA, 0.2M sucrose. The suspension was homogenised using an Ultra-Turrax at full speed for 15 sec. The homogenate was centrifuged at 18,000 r.p.m for 20 min at 4° C. in a SorvalI RC5C centrifuge. The membrane pellet was resuspended in ice-cold 50 mM Tris salts (pH 7.4@37° C.), using an Ultra-Turrax, and recentrifuged at 18,000 r.p.m for 15 min at 4° C. in a Sorvall RC5C. The membranes were washed two more times with ice-cold 50 mM Tris salts (pH 7.4@37° C.). The final pellet was resuspended in 50 mM Tris salts (pH 7.4@37° C.), and the protein content determined using bovine serum albumin as a standard (Bradford, M. M. (1976) Anal. Biochem. 72, 248-254).
Crude cell membranes were incubated with 0.1 nM [^125 I] iodosulpride (~2000 Ci/mmol; Amersham, U. K.), and the test compound in a buffer containing 50 mM Tris salts (pH 7.4@37° C.), 120 mM NaCl, 5 mM KCl, 2 mM CaCl2, 1 mM MgCl2, 0.1% (w/v) bovine serum albumin, in a total volume of 1 ml for 30 min at 37° C. […] The radioactivity on the filters was measured using a Cobra gamma counter (Canberra Packard). […]
Competition curves were analysed simultaneously whenever possible using non-linear least-squares fitting procedures, capable of fitting one, two or three site models.

T1 sequence (P35462 whole entry): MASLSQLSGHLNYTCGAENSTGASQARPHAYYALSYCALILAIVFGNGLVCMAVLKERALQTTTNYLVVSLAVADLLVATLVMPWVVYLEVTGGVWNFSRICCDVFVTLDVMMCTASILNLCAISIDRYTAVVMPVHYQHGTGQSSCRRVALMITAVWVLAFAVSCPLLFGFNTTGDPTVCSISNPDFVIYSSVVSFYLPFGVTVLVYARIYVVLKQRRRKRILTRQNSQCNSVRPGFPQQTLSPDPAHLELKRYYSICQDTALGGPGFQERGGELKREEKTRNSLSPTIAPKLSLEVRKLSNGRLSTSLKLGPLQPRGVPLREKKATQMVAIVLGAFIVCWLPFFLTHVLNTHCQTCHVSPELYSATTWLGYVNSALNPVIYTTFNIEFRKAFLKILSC

IC50, 5 to 20 nM:
CCN(Cc1ccccc1)Cc1ccc(-c2cc(S(=O)(=O)Oc3ccccc3)ccc2OC)[nH]1 [Example 3, 2-(N-Benzyl-N-ethyl)aminomethyl-5-(2-methoxy-5-phenoxysulphonylphenyl)-1H-pyrrole hydrochloride]
COc1ccc(S(=O)(=O)Oc2ccccc2)cc1-c1ccc(CN2CCCCCC2c2ccccc2)[nH]1 (stereo not drawn) [Example 1, 2-(2-Methoxy-5-Phenoxysulfonylphenyl)-5-(1-[2-phenylazacycloheptyl]methyl)-1H-pyrrole, hydrochloride]
CCN1CCCC1c1ccc(-c2cc(S(=O)(=O)Oc3ccccc3)ccc2OC)[nH]1 (racemic) [Example 2, 2-(2-(R,S)-(1-Ethylpyrrolidinyl))-5-(2-methoxy-5-phenoxysulphonylphenyl)-1H-pyrrole hydrochloride.]
